Laboratory results: US8101653B2, “Therapeutic compositions” (BTG International Limited, priority 1997, dated 2012)

Columns and labels:
[1] = system: liver cytosolic [NAD]/[NADH]; details: after feeding/administration; 1,3 butandiol decrease from 1500; cited from earlier work
[2] = liquid diet supplemented with 47% of its caloric content; cited from earlier work
[3] = cited from earlier work
[4] = system: primary hippocampal cultures; test: Effect of D-β-hydroxybutyrate on β-amyloid toxicity to hippocampal cells in vitro (microisland cultures); assay type: cell-based, Wistar; details: for neuronal cell number per microisland: increase from a mean of 30
Procedure: The serum free medium used from 0 to day 4 contained Neurobasal medium with B27 supplement diluted 50 fold (Life Technology, Gaithersburg, Md.) to which was added: 0.5 mM L-glutamine, 25 μM Na L-glutamate, 100 U/ml penicillin and 100 μg/ml streptomycin. After day 4, DMEM/F12 medium containing 5 μM insulin, 30 nM 1-thyroxine, 20 nM progesterone, 30 nM Na selenite 100 U/ml penicillin and 100 μg/ml streptomycin were used.
The primary hippocampal cultures were removed from Wistar embryos on day 18 and dispersed by gentle aggitation in a pipette. The suspension was centrifuge at 1,500×g for 10 min and the supernatant discarded. New media was make 0.4-0.5×10^6 cells/ml. Ten μl of this suspension was pipetted into the center of poly D-lysine coated culture wells and the plates incubated at 38° C. for 4 hrs and then 400 μl of fresh Neurobasal media was added. After 2 days of incubation, half of the media was exchanged for fresh media and the incubation continued for 2 more days. After day 4, the medium was changed with DMEM/F12 medium containing 5 μM insulin, 30 nM 1-thyroxine, 20 nM progestrone, 30 nM Na selenite 100 U/ml penicillin and 100 μg/ml streptomycin. […] These media were exchanged 2 days later (day 8) and the cells were fixed on day 10 and stained with anti MAP2 (Boehringer Manheim, Indianapolis, Id.) to visual neurons and vimentin and GFAP (Boehringer) to visualize glial cells.

whole brain GABA levels = test: Effect of increased blood D-β-hydroxybutyrate on whole brain GABA levels; assay type: in vivo, rat; details: 120 minutes after administration as in Example 3; t=0 level 191
Procedure: To assess the effect of D-β-hydroxybutyrate on whole brain GABA levels, and thus provide an indication of antiepileptic effect of ketone body or precursor treatment aimed at increasing blood ketone body levels, whole rat brain was frozen at set times after administration of D-β-hydroxybutyrate as described in Example 3, GBA was assayed using standard HPLC technique and related to protein content using standard protein assay.

[5] = room temperature, unesterified state; cited from earlier work
[6] = system: cerebral circulation and regional vasomotor reflexes; details: in vivo; cited from earlier work
[7] = cited from earlier work; remark: listed apart in the source
[8] = Oral administration of triolide in yoghurt to rats, plasma D-β-hydroxybutyrate and tolerability; assay type: in vivo, Wistar rats; details: over at least 3 hours
Procedure: The ability of orally administered triolide to raise blood ketone levels was investigated as follows. The day before the experiment commenced, 12 Wistar rats weighing 316±10 g were placed in separate cages. They had no access to food for 15 hours prior to presentation with triolide containing compositions, but water was provided ad libitum.
On the morning of the experiment 0.64 g of triolide was mixed with 5 g Co-op brand Black Cherry yoghurt in separate feeding bowls for […] of the rats. The memaining 3 rats were given 5 g of the yoghurt without the triolide as controls. The yoghurt containing bowls were placed in the cages and the rats timed while they ate. Two of the three control rats ate all the yoghurt and four of the six triolide yoghurt rats ate approximately half the provided amount. The remaining […] rats slept.
Control rats (n=2) were killed at 60 and 180 minutes after ingestion of yoghurt while triolide fed rats were killed at 80, 140, 150 and 155 minutes. Blood samples were taken for assay of D-β-hydroxybutyrate. […] Blood levels of (R)-3-hydroxyburyrate were measured using a […] assay of Anal. Biochem (1983) 131, p 478-482, 1.0 ml of a solution made up from 2-amino-2-methyl-1-propanol (100 mM pH 9.9, 0.094 g/10 ml), NAD^− (30 mM. 0.199 g/10 ml) and EDTA (4 mM, 0.015 g/10 ml) was added to each of a number of cuvettes and 4 μl sample or D-β-hydroxybutyrate control.

[9] = Rats fed triolide in 'Hob-Nob' biscuit, tolerability over two weeks; assay type: in vivo; details: two rats fed approximately 1.5 g triolide each in biscuit, after two weeks
septal cells = details: 1 μm Aβ142 for 24 hours; cited from earlier work
[10] = presence of D-β-hydroxybutyrate, whether β142 was present or not
[11] = intravenous infusion, normal human subjects and patients

CC(O)CCO (racemic) [racemic 1,3 butandiol, 1,3 butandiol]
liver cytosolic [NAD]/[NADH] [1]: 1000 | blood D-β hydroxybutyrate concentration [2]: 0.98 mM | blood acetoacetate concentration [2]: 0.33 mM | rise of blood ketone concentration [2]: about 10 fold

C[C@@H](O)CC(=O)O [D-β-hydroxybutyrate, (R)-3-hydroxybutyric acid]
pKa [3]: 4.4 | neuronal cell number per microisland ([4]; D-β-hydroxybutyrate added to cultures containing amyloid β142): 70 cells per microisland | neuronal cell number per microisland ([4]; Na D-β-hydroxybutyrate 8 mM, no amyloid): 70 cells per microisland | length of axons [4, 10]: increased | number of dendritic outgrowths [4, 10]: increased | whole brain GABA levels (whole brain GABA levels): 466 pmoles/μg protein

CC(=O)CC(=O)O [acetoacetate]
half time of spontaneous decarboxylation to acetone [5]: about 30 days

CCO [ethanol]
liver cytosolic [NAD]/[NADH] [1]: around 200

CC(O)CC(=O)[O-].[Na+] (centres unmarked) [sodium hydroxybutyrate]
increase of cerebral circulation and regional vasomotor reflexes [6]: up to 40%

C[C@@H](O)CC(=O)[O-].[Na+] [sodium salts of D-β-hydroxybutyrate]
toxicity ([7]; human, in vivo, iv): non-toxic | effect on glucose, free fatty acids and glycerol concentration [7, 11]: capable of decreasing | effect on leucine oxidation [7, 11]: ineffective

C[C@@H]1CC(=O)O[C@H](C)CC(=O)O[C@H](C)CC(=O)O1 [triolide, (R,R,R)-4,8,12-trimethyl-1,5,9-trioxadodeca-2,6,10-trione]
ill effects from ingestion [8]: no ill effects | ill effects [9]: no ill effects

amyloid β142: amyloid β peptide (Sigma), toxic to hippocampal neurons
activity of choline acetyl transferase (septal cells): no decrease | decrease in acetyl choline production (septal cells): over five fold
